# Data published in PubChem BioAssay AID248 (DTP/NCI, 2004).
# Inconclusive results and toxic doses are left out.
# System: L1210 leukemia ip in BDF1 mice, survival T/C
# Test: NCI In Vivo Anticancer Drug Screen. Data for tumor model L1210 Leukemia (intraperitoneal) in B6D2F1 (BDF1) mice
# Conditions: endpoint: mean survival time, higher = longer survival
# Method in brief: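 Survival endpoint. Drug-treated group vs vehicle group, expressed as T divided by C. Tumor passaged by transplantation.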
# [1] = dose: 200.0 mg/kg/injection, schedule: Q01DX001 (ip), vehicle: carboxymethylcellulose (CMC)
# [2] = dose: 100.0 mg/kg/injection, schedule: Q01DX001 (ip), vehicle: saline
# [3] = dose: 200.0 mg/kg/injection, schedule: Q01DX001 (ip), vehicle: saline
smiles,measurement,setting,value
S=C(N=Nc1ccccc1)NNc1ccccc1,T/C,"dose: 18.8 mg/kg/injection, schedule: Q04DX003 (ip), vehicle: saline with Tween-80",90 % of control
same,T/C,"dose: 18.9 mg/kg/injection, schedule: Q01DX009 (ip), vehicle: saline with Tween-80",87 % of control
same,T/C,"dose: 30.0 mg/kg/injection, schedule: Q01DX Z (ip), vehicle: carboxymethylcellulose (CMC)",92 % of control
same,T/C,"dose: 37.5 mg/kg/injection, schedule: Q01DX009 (ip), vehicle: saline with Tween-80",92 % of control
same,T/C,"dose: 37.5 mg/kg/injection, schedule: Q01DX Z (ip), vehicle: carboxymethylcellulose (CMC)",97 % of control
same,T/C,"dose: 37.5 mg/kg/injection, schedule: Q04DX003 (ip), vehicle: saline with Tween-80",87 % of control
same,T/C,"dose: 45.0 mg/kg/injection, schedule: Q01DX Z (ip), vehicle: carboxymethylcellulose (CMC)",97 % of control
same,T/C,"dose: 75.0 mg/kg/injection, schedule: Q01DX009 (ip), vehicle: saline with Tween-80",90 % of control
same,T/C,"dose: 75.0 mg/kg/injection, schedule: Q01DX Z (ip), vehicle: carboxymethylcellulose (CMC)",92 % of control
same,T/C,"dose: 75.0 mg/kg/injection, schedule: Q04DX003 (ip), vehicle: saline with Tween-80",92 % of control
same,T/C,"dose: 150.0 mg/kg/injection, schedule: Q04DX003 (ip), vehicle: saline with Tween-80",88 % of control
same,T/C,[1],101 % of control
COc1c(NS(=O)(=O)c2ccccc2)cc2c3c(cccc13)CC2,T/C,"dose: 100.0 mg/kg/injection, schedule: Q04DX003 (ip), vehicle: saline with Tween-80",97 % of control
same,T/C,"dose: 200.0 mg/kg/injection, schedule: Q04DX003 (ip), vehicle: saline with Tween-80",93 % of control
same,T/C,"dose: 400.0 mg/kg/injection, schedule: Q04DX003 (ip), vehicle: saline with Tween-80",101 % of control
OCC1OC(n2ccc3c(SCc4ccccc4)ncnc32)C(O)C1O (centres undefined),T/C,"dose: 25.0 mg/kg/injection, schedule: Q01DX001 (ip), vehicle: saline",110 % of control
same,T/C,"dose: 50.0 mg/kg/injection, schedule: Q01DX001 (ip), vehicle: saline",107 % of control
same,T/C,[2],98 % of control
same,T/C,[3],116 % of control
O=S(=O)(C(Br)CBr)C(Br)CBr (centres undefined),T/C,"dose: 25.0 mg/kg/injection, schedule: Q01DX009 (ip), vehicle: saline with Tween-80",94 % of control
same,T/C,"dose: 50.0 mg/kg/injection, schedule: Q01DX009 (ip), vehicle: saline with Tween-80",107 % of control
CN(C)S(=O)(=O)c1ccc(NC(=O)OC2CCCCCCC2)cc1,T/C,[2],96 % of control
same,T/C,[3],94 % of control
same,T/C,"dose: 400.0 mg/kg/injection, schedule: Q01DX001 (ip), vehicle: saline",89 % of control
Cc1c(C(=O)O)cc2n(c1=O)Cc1cc3ccccc3nc1-2,T/C,"dose: 100.0 mg/kg/injection, schedule: Q01DX009 (ip), vehicle: saline",90 % of control
same,T/C,"dose: 100.0 mg/kg/injection, schedule: Q04DX003 (ip), vehicle: saline",95 % of control
same,T/C,"dose: 200.0 mg/kg/injection, schedule: Q01DX009 (ip), vehicle: saline",86 % of control
same,T/C,"dose: 200.0 mg/kg/injection, schedule: Q04DX003 (ip), vehicle: saline",106 % of control
same,T/C,"dose: 400.0 mg/kg/injection, schedule: Q04DX003 (ip), vehicle: saline",98 % of control
CC1CC(C)OS(=O)O1 (centres undefined),T/C,"dose: 44.0 mg/kg/injection, schedule: Q01DX Z (ip), vehicle: saline",104 % of control
same,T/C,"dose: 66.0 mg/kg/injection, schedule: Q01DX Z (ip), vehicle: saline",102 % of control
same,T/C,"dose: 75.0 mg/kg/injection, schedule: Q01DX001 (ip), vehicle: acetone",103 % of control
same,T/C,"dose: 100.0 mg/kg/injection, schedule: Q01DX Z (ip), vehicle: saline",91 % of control
same,T/C,"dose: 150.0 mg/kg/injection, schedule: Q01DX001 (ip), vehicle: acetone",103 % of control
same,T/C,"dose: 300.0 mg/kg/injection, schedule: Q01DX001 (ip), vehicle: acetone",101 % of control
S=P(NCCCCCCCNP(=S)(N1CC1)N1CC1)(N1CC1)N1CC1,T/C,"dose: 100.0 mg/kg/injection, schedule: Q01DX001 (ip), vehicle: carboxymethylcellulose (CMC)",106 % of control
same,T/C,[1],98 % of control
same,T/C,"dose: 400.0 mg/kg/injection, schedule: Q01DX001 (ip), vehicle: carboxymethylcellulose (CMC)",104 % of control
CC[n+]1ccc(Nc2ccc(NC(=O)c3ccc(C(=O)Nc4ccc(Nc5cc[n+](CC)c(N)n5)cc4)cc3)cc2)nc1N,T/C,[2],190 % of control
same,T/C,"dose: 133.0 mg/kg/injection, schedule: Q01DX009 (ip), vehicle: saline",88 % of control
same,T/C,"dose: 150.0 mg/kg/injection, schedule: Q01DX001 (ip), vehicle: saline",228 % of control
same,T/C,"dose: 225.0 mg/kg/injection, schedule: Q01DX001 (ip), vehicle: saline",203 % of control
C=CCSC(=S)N(C)C,T/C,"dose: 25.0 mg/kg/injection, schedule: Q04DX002 (ip), vehicle: saline",101 % of control
same,T/C,"dose: 50.0 mg/kg/injection, schedule: Q04DX002 (ip), vehicle: saline",89 % of control
